Measured values: PMC10175918 (Communications Biology, 2023)
Like-named read-outs stand apart in the source and are kept apart here.

Tests used:
Experiment in all cases: TGFα-shedding assay-based GPCR screening with chimeric Gα subunit proteins
Type in all cases: cell-based
[1] = molecular target: 348 GPCRs (Homo sapiens, UniProt P41143); details: read-out: % GPCR activation compared to TPA, OPRD1 (opioid receptor, delta 1 (DOR)); 10µM, Favipiravir 100μM
[2] = molecular target: T1, 348 GPCRs (Homo sapiens, UniProt P47893); details: OR3A2 (olfactory receptor, family 3, subfamily A, member 2); 10µM, Favipiravir 100μM; read-out: % GPCR activation compared to TPA
T1 construct: expressed in transfected cells; host or cells: HEK293A
T1 sequence (P47893 1-321): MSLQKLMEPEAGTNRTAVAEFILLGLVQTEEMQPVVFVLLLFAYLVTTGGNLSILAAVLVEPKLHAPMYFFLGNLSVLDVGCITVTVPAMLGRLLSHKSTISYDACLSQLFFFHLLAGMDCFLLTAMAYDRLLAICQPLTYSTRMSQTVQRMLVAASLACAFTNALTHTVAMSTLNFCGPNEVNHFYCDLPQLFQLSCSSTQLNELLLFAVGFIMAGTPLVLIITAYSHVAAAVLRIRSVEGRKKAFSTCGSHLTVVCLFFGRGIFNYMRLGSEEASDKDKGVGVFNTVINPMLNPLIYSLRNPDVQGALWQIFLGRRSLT

[3] = molecular target: T2, 348 GPCRs (Homo sapiens, UniProt Q9NZD1); details: GPRC5D (G protein-coupled receptor class C group 5 member D); 10µM, Favipiravir 100μM; read-out: % GPCR activation compared to TPA
T2 construct: expressed in transfected cells; host or cells: HEK293A

[4] = molecular target: T3, 348 GPCRs (Homo sapiens, UniProt O00222); details: GRM8 (glutamate receptor, metabotropic 8); 10µM, Favipiravir 100μM; read-out: % GPCR activation compared to TPA
T3 construct: expressed in transfected cells; host or cells: HEK293A

[5] = molecular target: T4, 348 GPCRs (Homo sapiens, UniProt P35348); details: GPCR α1A (adrenoceptor alpha 1A), read-out: % GPCR activation compared to TPA
T4 construct: expressed in transfected cells; host or cells: HEK293A
T4 sequence (P35348 1-466): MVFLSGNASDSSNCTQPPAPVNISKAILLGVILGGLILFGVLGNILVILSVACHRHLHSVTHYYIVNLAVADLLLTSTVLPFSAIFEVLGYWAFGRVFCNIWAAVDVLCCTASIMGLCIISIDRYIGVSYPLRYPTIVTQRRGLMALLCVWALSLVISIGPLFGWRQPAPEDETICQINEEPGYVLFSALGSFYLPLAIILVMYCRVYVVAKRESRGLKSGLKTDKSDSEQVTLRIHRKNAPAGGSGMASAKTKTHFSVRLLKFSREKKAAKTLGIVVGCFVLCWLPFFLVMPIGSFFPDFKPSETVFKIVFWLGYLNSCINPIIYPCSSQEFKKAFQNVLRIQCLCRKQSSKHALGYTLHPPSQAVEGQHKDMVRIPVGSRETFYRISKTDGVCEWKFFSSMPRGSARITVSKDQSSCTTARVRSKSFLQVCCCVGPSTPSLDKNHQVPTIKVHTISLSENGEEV

[6] = molecular target: T5, 348 GPCRs (Homo sapiens, UniProt Q13639); details: HTR4 (5-hydroxytryptamine (serotonin) receptor 4); 10µM, Favipiravir 100μM; read-out: % GPCR activation compared to TPA
T5 construct: expressed in transfected cells; host or cells: HEK293A

[7] = molecular target: T6, 348 GPCRs (Homo sapiens, UniProt P34969); details: 5-HT7 (5-hydroxytryptamine receptor 7); 10µM, Favipiravir 100μM; read-out: % GPCR activation compared to TPA
T6 construct: expressed in transfected cells; host or cells: HEK293A

[8] = molecular target: T7, 348 GPCRs (Homo sapiens, UniProt P43657); details: LPAR6 (lysophosphatidic acid receptor 6); 10µM, Favipiravir 100μM; read-out: % GPCR activation compared to TPA
T7 construct: expressed in transfected cells; host or cells: HEK293A
T7 sequence (P43657 1-344): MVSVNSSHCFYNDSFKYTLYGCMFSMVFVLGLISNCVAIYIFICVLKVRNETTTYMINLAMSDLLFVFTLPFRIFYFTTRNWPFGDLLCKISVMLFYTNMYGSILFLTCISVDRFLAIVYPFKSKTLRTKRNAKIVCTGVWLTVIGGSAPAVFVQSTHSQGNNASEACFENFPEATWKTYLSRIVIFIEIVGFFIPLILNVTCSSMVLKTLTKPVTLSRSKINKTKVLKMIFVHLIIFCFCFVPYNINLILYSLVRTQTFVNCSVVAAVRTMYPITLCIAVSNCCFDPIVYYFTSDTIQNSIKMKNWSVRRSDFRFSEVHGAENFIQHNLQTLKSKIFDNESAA

[9] = molecular target: T8, 348 GPCRs (Homo sapiens, UniProt Q8TDU9); details: RXFP4 (relaxin/insulin-like family peptide receptor 4); 10µM, Favipiravir 100μM
T8 construct: expressed in transfected cells; host or cells: HEK293A

[10] = molecular target: T9, 348 GPCRs (Homo sapiens, UniProt P32302); details: GPCR CXCR5 (C-X-C motif chemokine receptor 5), read-out: % GPCR activation compared to TPA
T9 construct: expressed in transfected cells; host or cells: HEK293A
T9 sequence (P32302 1-372): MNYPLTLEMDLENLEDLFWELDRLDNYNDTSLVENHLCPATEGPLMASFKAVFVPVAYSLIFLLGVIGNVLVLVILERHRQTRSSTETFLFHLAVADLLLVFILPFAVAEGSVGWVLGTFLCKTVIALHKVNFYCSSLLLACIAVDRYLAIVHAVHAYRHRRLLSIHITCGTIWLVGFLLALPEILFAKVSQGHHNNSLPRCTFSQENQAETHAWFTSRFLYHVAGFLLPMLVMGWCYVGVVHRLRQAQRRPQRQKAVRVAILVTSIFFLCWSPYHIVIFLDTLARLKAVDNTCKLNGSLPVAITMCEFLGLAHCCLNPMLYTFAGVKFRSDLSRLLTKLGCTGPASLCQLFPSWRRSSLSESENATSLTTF

[11] = molecular target: T10, 348 GPCRs (Homo sapiens, UniProt Q96AM1); details: 10µM, Favipiravir 100μM, read-out: % GPCR activation compared to TPA
T10 construct: expressed in transfected cells; host or cells: HEK293A

[12] = molecular target: T11, 348 GPCRs (Homo sapiens, UniProt O00574); details: GPCR CXCR6 (C-X-C motif chemokine receptor 6), read-out: % GPCR activation compared to TPA
T11 construct: expressed in transfected cells; host or cells: HEK293A

[13] = molecular target: T12, 348 GPCRs (Homo sapiens, UniProt Q8NGU9); details: GPR150 (G protein-coupled receptor 150); 10µM, Favipiravir 100μM; read-out: % GPCR activation compared to TPA
T12 construct: expressed in transfected cells; host or cells: HEK293A

[14] = MRGF (MAS-related GPR, member F)
[15] = MRGPRF (MAS-related GPR, member F)

T10 sequence (Q96AM1 whole entry): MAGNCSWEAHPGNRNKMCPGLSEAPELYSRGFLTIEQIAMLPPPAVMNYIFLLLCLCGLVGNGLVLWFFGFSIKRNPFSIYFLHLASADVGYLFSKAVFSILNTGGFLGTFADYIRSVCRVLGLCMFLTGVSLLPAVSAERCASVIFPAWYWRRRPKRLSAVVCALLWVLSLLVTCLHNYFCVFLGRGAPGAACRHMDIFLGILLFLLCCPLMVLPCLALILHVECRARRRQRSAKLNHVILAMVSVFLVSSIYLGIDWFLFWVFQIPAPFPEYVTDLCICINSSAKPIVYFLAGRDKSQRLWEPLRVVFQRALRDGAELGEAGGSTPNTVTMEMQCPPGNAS
T12 sequence (Q8NGU9 whole entry): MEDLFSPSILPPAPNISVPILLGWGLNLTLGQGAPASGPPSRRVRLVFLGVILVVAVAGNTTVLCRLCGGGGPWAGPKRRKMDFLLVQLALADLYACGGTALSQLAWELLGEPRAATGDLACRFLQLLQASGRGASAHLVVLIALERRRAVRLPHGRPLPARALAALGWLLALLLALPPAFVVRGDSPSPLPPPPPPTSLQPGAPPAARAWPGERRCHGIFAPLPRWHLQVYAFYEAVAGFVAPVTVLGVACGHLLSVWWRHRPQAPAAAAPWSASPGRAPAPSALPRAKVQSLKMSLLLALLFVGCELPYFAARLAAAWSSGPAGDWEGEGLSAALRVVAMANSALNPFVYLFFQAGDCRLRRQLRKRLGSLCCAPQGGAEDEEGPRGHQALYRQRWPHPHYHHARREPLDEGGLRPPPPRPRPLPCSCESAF
Sequence of 348 GPCRs (Homo sapiens, UniProt P41143) (P41143 whole entry): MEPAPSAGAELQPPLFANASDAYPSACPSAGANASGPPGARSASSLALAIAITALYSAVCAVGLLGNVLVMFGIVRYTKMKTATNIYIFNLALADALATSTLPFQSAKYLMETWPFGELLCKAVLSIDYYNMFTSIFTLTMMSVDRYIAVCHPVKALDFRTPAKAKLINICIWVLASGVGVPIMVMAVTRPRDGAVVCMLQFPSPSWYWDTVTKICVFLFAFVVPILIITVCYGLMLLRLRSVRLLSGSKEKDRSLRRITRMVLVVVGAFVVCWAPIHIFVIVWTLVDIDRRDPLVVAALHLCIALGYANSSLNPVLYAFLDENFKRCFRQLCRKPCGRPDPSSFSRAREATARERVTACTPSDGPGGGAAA
T3 sequence (O00222 34-908): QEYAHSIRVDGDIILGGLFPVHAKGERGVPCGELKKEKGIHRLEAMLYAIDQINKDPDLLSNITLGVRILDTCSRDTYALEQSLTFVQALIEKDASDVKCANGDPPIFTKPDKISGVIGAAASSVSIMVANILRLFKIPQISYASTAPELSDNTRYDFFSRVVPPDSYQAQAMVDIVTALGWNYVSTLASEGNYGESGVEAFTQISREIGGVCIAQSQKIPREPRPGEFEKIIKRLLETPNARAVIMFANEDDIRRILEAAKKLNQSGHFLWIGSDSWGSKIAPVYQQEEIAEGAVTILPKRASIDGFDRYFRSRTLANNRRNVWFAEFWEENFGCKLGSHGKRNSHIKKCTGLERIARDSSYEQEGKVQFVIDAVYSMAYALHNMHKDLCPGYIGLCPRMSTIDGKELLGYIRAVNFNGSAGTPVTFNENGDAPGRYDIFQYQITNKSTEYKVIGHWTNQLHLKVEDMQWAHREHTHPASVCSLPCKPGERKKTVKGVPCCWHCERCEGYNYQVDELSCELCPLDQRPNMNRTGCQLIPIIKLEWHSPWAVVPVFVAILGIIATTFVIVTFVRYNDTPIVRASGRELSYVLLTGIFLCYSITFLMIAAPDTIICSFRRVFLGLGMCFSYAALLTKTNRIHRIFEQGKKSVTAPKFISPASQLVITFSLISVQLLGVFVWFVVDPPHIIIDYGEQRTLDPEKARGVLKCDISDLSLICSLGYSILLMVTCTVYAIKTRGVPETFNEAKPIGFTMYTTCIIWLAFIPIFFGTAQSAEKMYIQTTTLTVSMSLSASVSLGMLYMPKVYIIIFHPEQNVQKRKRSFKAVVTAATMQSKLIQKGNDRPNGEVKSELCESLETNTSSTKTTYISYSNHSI
T11 sequence (O00574 whole entry): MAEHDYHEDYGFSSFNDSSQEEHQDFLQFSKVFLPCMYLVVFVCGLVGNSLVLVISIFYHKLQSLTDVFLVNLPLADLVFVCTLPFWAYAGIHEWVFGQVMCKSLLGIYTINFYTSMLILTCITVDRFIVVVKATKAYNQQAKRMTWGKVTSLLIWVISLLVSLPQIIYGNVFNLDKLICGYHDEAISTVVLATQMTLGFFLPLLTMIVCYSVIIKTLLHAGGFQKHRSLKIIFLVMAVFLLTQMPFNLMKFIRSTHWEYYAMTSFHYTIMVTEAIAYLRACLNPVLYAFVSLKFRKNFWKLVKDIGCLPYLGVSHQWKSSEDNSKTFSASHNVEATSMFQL
T5 sequence (Q13639 whole entry): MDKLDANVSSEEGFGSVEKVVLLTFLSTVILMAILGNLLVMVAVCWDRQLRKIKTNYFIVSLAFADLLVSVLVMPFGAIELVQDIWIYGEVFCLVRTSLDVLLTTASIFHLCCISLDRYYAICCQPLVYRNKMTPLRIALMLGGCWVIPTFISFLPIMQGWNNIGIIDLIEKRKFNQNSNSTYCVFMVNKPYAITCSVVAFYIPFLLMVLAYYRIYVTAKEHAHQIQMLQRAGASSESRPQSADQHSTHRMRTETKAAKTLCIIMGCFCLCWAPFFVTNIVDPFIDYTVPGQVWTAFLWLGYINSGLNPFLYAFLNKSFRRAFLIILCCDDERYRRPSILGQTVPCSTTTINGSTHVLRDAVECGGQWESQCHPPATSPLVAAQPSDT
T6 sequence (P34969 whole entry): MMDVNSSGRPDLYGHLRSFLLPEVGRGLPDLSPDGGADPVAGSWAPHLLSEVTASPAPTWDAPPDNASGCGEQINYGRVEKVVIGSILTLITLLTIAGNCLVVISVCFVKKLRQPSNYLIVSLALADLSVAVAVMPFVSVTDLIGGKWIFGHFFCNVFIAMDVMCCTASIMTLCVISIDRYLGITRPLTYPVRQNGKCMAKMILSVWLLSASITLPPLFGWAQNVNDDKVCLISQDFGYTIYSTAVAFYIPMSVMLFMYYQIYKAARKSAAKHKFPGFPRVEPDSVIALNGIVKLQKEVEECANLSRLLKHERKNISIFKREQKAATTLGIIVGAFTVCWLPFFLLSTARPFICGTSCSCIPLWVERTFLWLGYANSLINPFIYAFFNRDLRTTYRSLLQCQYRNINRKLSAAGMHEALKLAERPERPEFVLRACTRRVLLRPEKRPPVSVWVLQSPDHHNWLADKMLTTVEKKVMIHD
T2 sequence (Q9NZD1 whole entry): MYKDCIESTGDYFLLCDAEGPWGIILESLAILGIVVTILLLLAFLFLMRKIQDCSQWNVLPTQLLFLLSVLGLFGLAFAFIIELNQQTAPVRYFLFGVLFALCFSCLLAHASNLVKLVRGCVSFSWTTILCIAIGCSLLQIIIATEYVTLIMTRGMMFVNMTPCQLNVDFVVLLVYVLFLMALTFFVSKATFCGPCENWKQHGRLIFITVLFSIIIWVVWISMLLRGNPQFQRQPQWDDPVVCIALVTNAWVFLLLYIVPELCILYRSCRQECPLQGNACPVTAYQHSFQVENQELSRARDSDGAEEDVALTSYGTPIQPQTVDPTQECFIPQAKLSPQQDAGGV
T8 sequence (Q8TDU9 whole entry): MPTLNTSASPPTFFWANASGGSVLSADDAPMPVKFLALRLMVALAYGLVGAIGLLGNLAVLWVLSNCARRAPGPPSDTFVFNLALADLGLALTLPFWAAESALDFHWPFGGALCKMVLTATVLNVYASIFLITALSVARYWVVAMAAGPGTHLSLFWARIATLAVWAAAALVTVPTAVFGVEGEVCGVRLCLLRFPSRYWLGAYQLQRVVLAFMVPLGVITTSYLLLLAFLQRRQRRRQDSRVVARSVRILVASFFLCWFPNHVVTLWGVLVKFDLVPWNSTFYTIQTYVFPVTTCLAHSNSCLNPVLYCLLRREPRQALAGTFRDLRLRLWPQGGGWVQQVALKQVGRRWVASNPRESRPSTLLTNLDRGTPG

Row | activation at 100 µM [1] [%] | activation at 10 µM [2] [%] | activation at 10 µM [3] [%] | activation at 10 µM [4] [%] | activation at 10 µM ([5]; 10µM) [%] | activation at 100 µM [6] [%] | activation at 100 µM [7] [%] | activation at 10 µM [8] [%] | % GPCR activation compared to TPA [9] [%] | activation at 10 µM ([10]; 10µM) [%] | activation at 100 µM [11, 14] [%] | activation at 100 µM [11, 15] [%] | activation at 10 µM ([12]; 10µM) [%] | activation at 100 µM [13] [%] | activation at 100 µM ([5]; 100μM) [%] | activation at 100 µM ([10]; 100μM) [%] | activation at 100 µM ([12]; 100μM) [%] | Structure (SMILES)
1 | -2.68 | -9.89 | -1.93 | -1.24 | 0.0114 | -1.56 | 1.1 | -2.57 | -0.3375 | -2.05 | 4.76 | -0.751 | -0.956 | 0.708 | – | – | – | N#C[C@@]1(c2ccc3c(N)ncnn23)O[C@H](CO)[C@@H](O)[C@H]1O [GS441524]
2 | -3.28 | -0.0334 | -2.09 | -1.56 | – | -3.64 | 0.723 | -2.1 | 1.69 | – | 0.745 | -1.13 | – | -0.462 | 0.574 | -2.18 | -1.02 | NC(=O)c1nc(F)cnc1O [favipiravir, 6-fluoro-3-hydroxy-2-pyrazinecarboxamide]
